Experimental data taken from publication PMC11110133, “Thiophene-fused γ-lactams inhibit the SARS-CoV-2 main protease via reversible covalent acylation” (Chemical Science, 2024).
Read-outs that look alike come from different tables or passages of the source.

Assays:
[1] = target: T1, isolated recombinant SARS-CoV-2 M^pro (Severe acute respiratory syndrome coronavirus 2, UniProt P0DTD1); assay: SPE-MS SARS-CoV-2 Mpro inhibition assay; format: biochemical; conditions: for IC50: SPE-MS, SARS-CoV-2 M^pro 0.05 μM, substrate peptide 2.0 μM, mean ± SD of two independent runs (n = 2); for fold increase in M^pro inhibition potency relative to γ-lactam 7: relative to 7; for fold more efficient M^pro inhibition than γ-lactam 5: relative to reported γ-lactam 5; for fold more efficient M^pro inhibition than pyrazolidinone 6: relative to reported pyrazolidinone 6
[2] = target: T1, isolated recombinant SARS-CoV-2 M^pro; format: binding; conditions: for covalent reaction with M^pro (protein-observed MS): M^pro 3.0 μM, γ-lactam 15 μM, 20 mM HEPES pH 7.5, 4 h incubation
M^pro [3] = conditions: mass spectrometric analyses; cited from earlier work
[4] = target: T1, isolated recombinant SARS-CoV-2 M^pro; design: method as in PMID 35549342; conditions: cited from earlier work; for IC50: reported M^pro inhibition
M^pro [5] = test system: M^pro; design: method as in PMID 37866713; conditions: reported M^pro inhibition; cited from earlier work

CC(C)C1C(=O)N(S(C)(=O)=O)c2sccc21 (racemic) [16c]
IC50 ([1]; read-out: IC50): ~16 µM
fold less efficient M^pro inhibition than 16b ([1]; relative to propyl-substituted 16b): ~5 fold

CS(=O)(=O)N1C(=O)C(Cc2ccccc2)c2ccsc21 (racemic) [16d]
IC50 ([1]; read-out: IC50): ~4 µM

CS(=O)(=O)N1C(=O)C(CCC#N)c2ccsc21 (racemic) [16e]
IC50 ([1]; read-out: IC50): ~2.7 µM

C=CCC1C(=O)N(S(C)(=O)=O)c2sccc21 (racemic) [16f]
IC50 ([1]; read-out: IC50): ~3.5 µM

CS(=O)(=O)N1C(=O)C(CCC#N)c2ccsc21 (racemic) [C00007]
IC50 ([1]; read-out: IC50): 2.7 ± 0.1 µM

C=CCC1C(=O)N(S(C)(=O)=O)c2sccc21 (racemic) [C00009]
IC50 ([1]; read-out: IC50): 3.5 ± 0.2 µM

CC(C)C1C(=O)N(S(C)(=O)=O)c2sccc21 (racemic) [C00012]
IC50 ([1]; read-out: IC50): 16 ± 2 µM

CS(=O)(=O)N1C(=O)C(Cc2ccccc2)c2ccsc21 (racemic) [C00014]
IC50 ([1]; read-out: IC50): 4 ± 0.4 µM

CC1C(=O)N(S(C)(=O)=O)c2sccc21 (stereo not drawn) [16a]
complex observed after adding excess 24 to the M^pro:16a mixture (reversibility) ([2]; 16a with M^pro 2 h at 0 °C (1 : 5), then 24 for 3 h at 0 °C, SPE-MS): not detected
covalent reaction with the covalent M^pro:nirmatrelvir alkyne (24) complex (Cys145 blocked) ([2]; M^pro 3.0 μM pre-reacted with 24, then 16a 15 μM, 2 h): does not covalently react
covalent reaction with M^pro (protein-observed MS) [2]: react covalently
fold increase in M^pro inhibition potency relative to γ-lactam 7 [1]: ~2 fold

CCCC1C(=O)N(S(C)(=O)=O)c2sccc21 (stereo not drawn) [16b]
covalent reaction with M^pro (protein-observed MS) [2]: react covalently

CC1(C)C(=O)N(S(C)(=O)=O)c2sccc21 [17a]
IC50 [1]: did not inhibit

C=CCC1(CC=C)C(=O)N(S(C)(=O)=O)c2sccc21 [17b]
IC50 [1]: did not inhibit

CC(=O)N1C(=O)Cc2ccsc21 [23a]
IC50 [1]: ablated M^pro inhibition

O=C1Cc2ccsc2N1S(=O)(=O)Cc1ccccc1 [23b]
covalent reaction with M^pro (protein-observed MS) [2]: react covalently
fold increase in M^pro inhibition potency relative to γ-lactam 7 [1]: ~2 fold

O=C1Cc2ccsc2N1S(=O)(=O)c1ccccc1 [23c]
fold increase in M^pro inhibition potency relative to γ-lactam 7 [1]: ~2 fold

COc1ccc(S(=O)(=O)N2C(=O)Cc3ccsc32)cc1 [23d]
covalent reaction with M^pro (protein-observed MS) [2]: react covalently

O=C1Cc2ccsc2N1S(=O)(=O)c1ccc(C(F)(F)F)cc1 [23f]
IC50 ([1]; read-out: IC50): ~1.3 µM
fold increase in M^pro inhibition potency relative to γ-lactam 7 [1]: ~6 fold
fold more potent than γ-lactam 23c ([1]; relative to 23c): ~3 fold
fold more efficient M^pro inhibition than β-lactam 3 ([1]; relative to reported β-lactam 3): ~6 fold
fold more efficient M^pro inhibition than γ-lactam 5 [1]: ~20 fold

CS(=O)(=O)N1C(=O)Cc2ccsc21 [C00001]
IC50 ([1]; read-out: IC50): 8.5 ± 1.4 µM

CS(=O)(=O)N1C(=O)Cc2sccc21 [C00002]
IC50 ([1]; read-out: IC50): 8.4 ± 0.5 µM

CS(=O)(=O)N1C(=O)Cc2cscc21 [C00003]
IC50 ([1]; read-out: IC50): > 100 µM

CS(=O)(=O)n1c(=O)n(S(C)(=O)=O)c2cscc21 [C00004]
IC50 ([1]; read-out: IC50): > 100 µM

CS(=O)(=O)N1C(=O)Cc2ccccc21 [C00005]
IC50 ([1]; read-out: IC50): > 100 µM

CC1C(=O)N(S(C)(=O)=O)c2sccc21 (stereo not drawn) [C00006]
IC50 ([1]; read-out: IC50): 3.9 ± 0.1 µM

CC1(C)C(=O)N(S(C)(=O)=O)c2sccc21 [C00008]
IC50 ([1]; read-out: IC50): > 100 µM

CCCC1C(=O)N(S(C)(=O)=O)c2sccc21 (stereo not drawn) [C00010]
IC50 ([1]; read-out: IC50): 3.2 ± 0.8 µM

C=CCC1(CC=C)C(=O)N(S(C)(=O)=O)c2sccc21 [C00011]
IC50 ([1]; read-out: IC50): > 100 µM

CS(=O)(=O)N1C(=O)C2(CC=CC2)c2ccsc21 [C00013]
IC50 ([1]; read-out: IC50): 61 ± 4 µM

CS(=O)(=O)N1C(=O)C2(CC=CC2)c2sccc21 [C00015]
IC50 ([1]; read-out: IC50): > 100 µM

CS(=O)(=O)N1C(=O)Cc2ccsc21 [C00017]
IC50 ([1]; read-out: IC50): 8.5 ± 1.4 µM

CC(=O)N1C(=O)Cc2ccsc21 [C00018]
IC50 ([1]; read-out: IC50): > 100 µM

O=C1Cc2ccsc2N1S(=O)(=O)Cc1ccccc1 [C00019]
IC50 ([1]; read-out: IC50): 4.3 ± 0.1 µM

O=C1Cc2ccsc2N1S(=O)(=O)c1ccccc1 [C00020]
IC50 ([1]; read-out: IC50): 4.7 ± 1.1 µM

COc1ccc(S(=O)(=O)N2C(=O)Cc3ccsc32)cc1 [C00021]
IC50 ([1]; read-out: IC50): 2.7 ± 0.2 µM

O=C1Cc2ccsc2N1S(=O)(=O)c1ccc([N+](=O)[O-])cc1 [C00022]
IC50 ([1]; read-out: IC50): 4.4 ± 0.7 µM

O=C1Cc2ccsc2N1S(=O)(=O)c1ccc(C(F)(F)F)cc1 [C00023]
IC50 ([1]; read-out: IC50): 1.3 ± 0.1 µM

CC1(C)C(C(=O)OCc2ccccc2)N2C(=O)C(NC(=O)COc3ccccc3)C2S1(=O)=O (stereo not drawn) [compound 3, penicillin V sulfone benzyl ester]
covalent reaction with M^pro (reported) (M^pro [3]): covalent reaction of its β-lactam with the active site Cys145
IC50 [4]: ~6.6 µM

CC1(C)C(C(=O)OCc2ccccc2)N2C(=O)C(NC(=O)COc3ccccc3)CC2S1(=O)=O (stereo not drawn) [compound 5]
covalent reaction with M^pro (reported) (M^pro [3]): did not react to form a stable acyl–enzyme complex
fold less efficient M^pro inhibition than β-lactam 3 ([4]; relative to β-lactam 3): ~4 fold
IC50 [4]: ~26.1 µM

O=C(O)C1=C(C(=O)N(Cc2ccccc2)Cc2ccccc2)CN2C[C@H](NC(=O)[C@H](Cc3ccccc3)NC(=O)c3cc4ccccc4[nH]3)C(=O)N12 [compound 6]
IC50 (M^pro [5]): ~45 µM

CS(=O)(=O)N1C(=O)Cc2ccsc21 [compound 7]
covalent reaction with M^pro (protein-observed MS) [2]: react covalently
IC50 ([1]; read-out: IC50): ~8.5 µM
fold more efficient M^pro inhibition than pyrazolidinone 6 [1]: ~5 fold
fold more efficient M^pro inhibition than γ-lactam 5 [1]: ~3 fold

CS(=O)(=O)N1C(=O)Cc2sccc21 [compound 8]
covalent reaction with M^pro (protein-observed MS) [2]: react covalently
IC50 ([1]; read-out: IC50): ~8.4 µM
fold more efficient M^pro inhibition than pyrazolidinone 6 [1]: ~5 fold
fold more efficient M^pro inhibition than γ-lactam 5 [1]: ~3 fold

CS(=O)(=O)N1C(=O)Cc2cscc21 [compound 9]
IC50 [1]: did not inhibit

CS(=O)(=O)n1c(=O)n(S(C)(=O)=O)c2cscc21 [compound 10]
IC50 [1]: did not result in inhibition

CS(=O)(=O)N1C(=O)Cc2ccccc21 [compound 11]
IC50 [1]: did not inhibit

CS(=O)(=O)N1C(=O)C2(CC=CC2)c2ccsc21 [compound 18]
IC50 [1]: did not efficiently inhibit

CS(=O)(=O)N1C(=O)C2(CC=CC2)c2sccc21 [compound 19]
IC50 [1]: did not efficiently inhibit
